pIC50, pKd: −log10 of the molar value.
How the values were obtained:
human RIPK3 = human RIPK3 (Homo sapiens (Human), UniProt Q9Y572); assay: KINOMEscan binding assay, human RIPK3; conditions: equilibrium dissociation constant
Outline: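 Compound dilutions (11 points, 3-fold, mostly from 30,000 nM, 1% DMSO final) competed with immobilized ligand for DNA- or phage-tagged protein, and bead-bound protein was measured by qPCR. Kd values came from Hill-equation fits with slope −1 (Levenberg-Marquardt).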

U937 cells = assay: Counter screen: U937 cell viability without TSQ cocktail (off-target effect); parameters: species or system human; conditions: Homo sapiens, U-937, compound without TSQ cocktail, read-out: Off-target effect (IC50 cell-based assay)
Outline: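 Off-target viability counter screen: compounds titrated 36 μM down 1:3 over 10 points (0.3% DMSO) on 20,000 U937 cells/well, no TNF/Smac mimetic/Q-VD-OPh added, 48 h incubation. ATP-based CellTiter-Glo luminescence, four-parameter logistic IC50.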

Sequence of human RIPK3 (Q9Y572 whole entry): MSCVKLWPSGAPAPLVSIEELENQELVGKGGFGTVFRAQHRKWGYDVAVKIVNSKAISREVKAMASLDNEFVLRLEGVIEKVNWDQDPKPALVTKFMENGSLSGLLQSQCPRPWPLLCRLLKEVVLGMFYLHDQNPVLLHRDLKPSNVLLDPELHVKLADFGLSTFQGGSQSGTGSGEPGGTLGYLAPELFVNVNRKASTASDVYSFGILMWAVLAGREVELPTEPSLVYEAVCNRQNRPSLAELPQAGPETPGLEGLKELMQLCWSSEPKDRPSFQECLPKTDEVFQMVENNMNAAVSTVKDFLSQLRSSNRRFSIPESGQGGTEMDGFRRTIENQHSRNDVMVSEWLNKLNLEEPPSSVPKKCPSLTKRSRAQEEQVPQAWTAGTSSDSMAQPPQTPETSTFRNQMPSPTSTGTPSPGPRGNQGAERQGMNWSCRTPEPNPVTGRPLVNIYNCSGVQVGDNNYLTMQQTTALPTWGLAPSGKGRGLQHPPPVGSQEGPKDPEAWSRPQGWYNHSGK

| SMILES | pKd (human RIPK3) | pIC50 (U937 cells) |
| --- | --- | --- |
| C[C@H](Oc1cc(-c2nn(C)c3c(C#CC4CCN(C)CC4)cnc(N)c23)ccc1NS(=O)(=O)C(F)F)c1ccc(F)cc1 [Compound 80, (S)—N-(4-(4-amino-1-methyl-7-((1-methylpiperidin-4-yl)ethynyl)-1H-pyrazolo[4,3-c]pyridin-3-yl)-2-(1-(4-fluorophenyl)ethoxy)phenyl)-1,1-difluoromethanesulfonamide] | < 5.00 | < 5.00 |
| C[C@H](Oc1cc(-c2nn(C)c3c(-c4ccc5c(cnn5C)c4)cnc(N)c23)ccc1NS(=O)(=O)C(F)F)c1ccc(F)cc1 [Compound 166, (S)-N-(4-(4-amino-1-methyl-7-(1-methyl-1H-indazol-5-yl)-1H-pyrazolo[4,3-c]pyridin-3-yl)-2-(1-(4-fluorophenyl)ethoxy)phenyl)-1,1-difluoromethanesulfonamide] | < 5.00 | < 5.00 |
| C[C@H](Oc1cc(-c2nn(C)c3c(-c4cnn(C5CCN(C)C(C(F)(F)F)C5)c4)cnc(N)c23)ccc1NS(=O)(=O)C(F)F)c1ccc(F)cc1 (stereo partly drawn) [Compound 148, N-(4-(4-amino-1-methyl-7-(1-(1-methyl-2-(trifluoromethyl)piperidin-4-yl)-1H-pyrazol-4-yl)-1H-pyrazolo[4,3-c]pyridin-3-yl)-2-((S)-1-(4-fluorophenyl)ethoxy)phenyl)-1,1-difluoromethanesulfonamide] | < 5.00 | < 5.00 |

Second part, led by results:

| pKd (human RIPK3) | SMILES | pIC50 (U937 cells) |
| --- | --- | --- |
| < 5.00 | COCC(Oc1cc(-c2nn(C)c3c(-c4cnn(C5CCN(C)CC5)c4)cnc(N)c23)ccc1NS(=O)(=O)C(F)F)c1ccc(F)cc1 (stereo not shown) [Compound 139, N-(4-(4-amino-1-methyl-7-(1-(1-methylpiperidin-4-yl)-1H-pyrazol-4-yl)-1H-pyrazolo[4,3-c]pyridin-3-yl)-2-(1-(4-fluorophenyl)-2-methoxyethoxy)phenyl)-1,1-difluoromethanesulfonamide] | < 5.00 |
| < 5.00 | C[C@H](Oc1cc(-c2nn(C)c3c(C#CC4CCNCC4)cnc(N)c23)ccc1NS(=O)(=O)C(F)F)c1ccc(F)cc1 [Compound 79, (S)—N-(4-(4-amino-1-methyl-7-(piperidin-4-ylethynyl)-1H-pyrazolo[4,3-c]pyridin-3-yl)-2-(1-(4-fluorophenyl)ethoxy)phenyl)-1,1-difluoromethanesulfonamide] | < 5.00 |
| < 5.00 | C[C@H](Oc1cc(-c2nn(C)c3c(-c4cnn(C5(CC#N)COC5)c4)cnc(N)c23)ccc1NS(=O)(=O)C(F)F)c1ccc(F)cc1 [Compound 98, (S)-N-(4-(4-amino-7-(1-(3-(cyanomethyl)oxetan-3-yl)-1H-pyrazol-4-yl)-1-methyl-1H-pyrazolo[4,3-c]pyridin-3-yl)-2-(1-(4-fluorophenyl)ethoxy)phenyl)-1,1-difluoromethanesulfonamide] | < 5.00 |
| < 5.00 | Cn1nc(-c2ccc(NS(=O)(=O)C(F)F)c(OCc3ccc(F)cc3)c2)c2c(N)ncc(-c3cnn(C4CCOCC4)c3)c21 [Compound 13, N-(4-(4-amino-1-methyl-7-(1-(tetrahydro-2H-pyran-4-yl)-1H-pyrazol-4-yl)-1H-pyrazolo[4,3-c]pyridin-3-yl)-2-((4-fluorobenzyl)oxy)phenyl)-1,1-difluoromethanesulfonamide] | < 5.00 |
| < 5.00 | COCCn1cc(-c2cnc(N)c3c(-c4ccc(NS(=O)(=O)C(F)F)c(O[C@@H](C)c5ccc(F)cc5)c4)nn(C)c23)cn1 [Compound 29, (S)-N-(4-(4-amino-7-(1-(2-methoxyethyl)-1H-pyrazol-4-yl)-1-methyl-1H-pyrazolo[4,3-c]pyridin-3-yl)-2-(1-(4-fluorophenyl)ethoxy)phenyl)-1,1-difluoromethanesulfonamide] | < 5.00 |

Reference: US20250059188A1, “ARYLSULPHONAMIDE COMPOUNDS” (Anaxis Pharma Pty Ltd, priority 2021, published 2025)
